Test results reported in paper PMC8230474, “Synthesis of Novel Acyl Derivatives of 3-(4,5,6,7-Tetrabromo-1H-benzimidazol-1-yl)propan-1-ols—Intracellular TBBi-Based CK2 Inhibitors with Proapoptotic Properties” (International Journal of Molecular Sciences, 2021).

Assays:
[1] = test system: protein kinase CK2 in MDA-MB-231 cells; test: Intracellular inhibition of CK2, Western blot of p-Ser529 p65 and p-Ser129 Akt1, MDA-MB-231; assay type: cell-based, human; conditions: MDA-MB-231, 24 h treatment, compound at its 72-h EC50, relative to untreated control
Excerpt: We observed an inhibition of CK2 in both cell lines; however, the lower efficiency of CK2 inhibition was detected in MCF-7 considering the extent of Akt1 phosphorylation. The relative level of the phosphorylation of the tested proteins in MDA-MB-231 cells was in the range of 0.32 to 0.80 for p-Ser529 p65 and 0.41 to 0.73 for p-Ser129 Akt1, whereas in MCF-7 cells it was in the range of 0.33 to 0.78 for p-Ser529 p65 and 0.82 to 1.23 for p-Ser129 Akt1, respectively. The lowest phosphorylation levels of the tested proteins were detected in MDA-MB-231 cells for compound 6b with the relative level of 0.41 for Ser129 Akt1 as well as for compound 6c with the relative level of 0.32 for p-Ser529 p65. Among the tested proteins, the lowest extent of phosphorylation in MCF-7 cells was detected for 6b with the relative level of 0.33 for p-Ser529 p65, and for 6a with the relative level of 0.82 for Ser129 Akt1.
The MCF-7 cells growing exponentially were seeded at 4.8 × 10^5 cells in 6-cm-diameter plates. Subsequently, compounds were added in a final concentration of 0.5% DMSO. […] The protein concentration was determined using Bradford assay. […]
For densitometry, immunoblots were quantified using the Fiji distribution of the ImageJ 1.52a software (National Institutes of Health, Bethesda, MD, USA, and the University of Wisconsin, Madison, WI, USA). […]

MCF-7 cells = test: Annexin V-FITC/PI flow cytometry, MCF-7; assay type: cell-based, human; conditions: MCF-7, 72-h treatment, compound at its EC50
Experimental: Additionally, assaying annexin V-binding to phosphatidylserine by means of flow cytometry confirmed that derivatives 3c and 6a–c induced apoptosis in both cell lines (Figure 9, Figure S3).
MCF-7 cells were seeded in six-well plates at 1.5 × 10^5 cells/well. […] Then, the plates were incubated for 24 h or 72 h. After exposure to the examined compounds, the floating cells were collected, and monolayer cell culture was trypsinized. The cells were centrifugated at 200× g at 4 °C for 5 min, washed twice in cold phosphate-buffered saline (PBS), and subsequently suspended in binding buffer at 1 × 10^6 cells/mL. Subsequently, 100-μL aliquots of the cell suspension were labeled according to the kit manufacturer’s instructions. Briefly, annexin V-fluorescein isothiocyanate and propidium iodide (BD Biosciences, Pharmingen, San Diego, CA, USA) were added to the cell suspension, and the mixture was vortexed and then incubated for 15 min at RT in the dark. A cold binding buffer (900 μL) was then added and the cells were vortexed again and kept on ice. Flow cytometric measurements were performed within 1 h after labeling. Viable, necrotic, early, and late apoptotic cells were detected by flow cytometry using CyFlow Cube 8 (Sysmex, Norderstedt, Germany) flow cytometer.

CCCCCC(=O)OCCCn1c(C)nc2c(Br)c(Br)c(Br)c(Br)c21 [Compound 6b, (4,5,6,7-Tetrabromo-2-methyl-1H-benzimidazol-1-yl)propyl hexanoate]
relative level of p-Ser129 Akt1 [1]: 0.41
apoptotic cells (early and late apoptosis) (MCF-7 cells): 57.5%
